Legend:
Format in all cases: in vivo
p-PKC = test: Western blot of p-PKC in proximal descending thoracic aorta of treated Col3a1^G938D mice; details: normalized to β-actin, vs untreated
Experimental: (§1) Protein was extracted using an automatic bead homogenizer in conjunction with a Protein Extraction Kit (Full Moon Biosystems). All protein lysis buffers contained both PhosSTOP and cOmplete™, Mini, EDTA-free Protease Inhibitor Cocktail (Roche). Western blotting was performed using LI-COR buffer and species appropriate secondary antibodies conjugated to IR-dye700 or IRdye-800 (LI-COR Biosciences), according to the manufacturer's guidelines and analyzed using LI-COR Odyssey. The following primary antibodies were used: anti-β-Actin (8H10D10) (Cell Signaling Technology, 3700), anti-phospho ERK1/2 (Cell Signaling Technology, 4370), anti-PKCβ (phospho S660) (Abcam, 75837), anti-Endothelin-1 (TR.ET.48.5) (Thermo Fisher Scientific, MA3005), anti-Endothelin-1 (TR.ET.48.5) (Abcam, 2786).
(§2) pERK and pPKC amounts were normalized to j-actin as opposed to total ERK or total PKC for a variety of practical reasons. First, it is the amount of phosphorylated protein, and not the ratio of phosphorylated to unphosphorylated protein, that drives cellular responses. Second, we are unaware of any pathophysiologic context where the amount of unphosphorylated protein is limiting (i.e. always in excess). […]

p-ERK1/2 = test: Western blot of p-ERK1/2 in proximal descending thoracic aorta of treated Col3a1^G938D mice; details: normalized to β-actin, vs untreated
Experimental: as §1, §2

Col3a1^G938D mice = test: Survival drug trial in Col3a1^G938D/+ (vEDS) mice, Kaplan-Meier
Text: All mice were maintained on a C57BL/6J background (#000664, The Jackson Laboratory). ET1^fl/fl f mice were obtained from RIKEN (RBRC06322). Tie2-Cre mice and Sm22-Cre mice were obtained from the Jackson Laboratory (#004128. #017491). All mice were genotyped according to published protocols.
Restriction enzymes were used to detect the presence or absence of the Col3a1 mutation as previously described. The G938D mutation leads to the gain of a BamHI cut site (R3136S, New England Biolabs). All mice found dead were assessed for cause of death by necropsy, noting in particular hemothorax and hemoperitoneum.
For drug trials in the Col3a1^G938D/+ mice, mice were initiated on medication at weaning and continued until 2 months of age. Cobimetinib (GDC-0973/RO551404, Active Biochem) was dissolved in drinking water and filtered to reach a final concentration of 0.02 g/L giving an estimated dose of 2 mg/kg/day. Ruboxistaurin (LY333531 HCl, Selleck Chemicals) was mixed with powdered food (LabDiet) to give a concentration of 0.1 mg/g giving an estimated dose of 8 mg/kg/day. […]
By design, each treatment trial included contemporaneous control (untreated) mice. […] All p-values calculated by log-rank comparisons (using Prism) are reported as unadjusted p-values, given the interdependence of many of the drug mechanisms. […]

Endothelin-1 = test: Immunofluorescence of Endothelin-1 in descending thoracic aorta of treated Col3a1^G938D/+ mice; details: descending thoracic aorta of 8-week-old Col3a1^G938D/+ mice, treated from weaning; cobimetinib est. 2 mg/kg/day, ruboxistaurin est. 8 mg/kg/day
Experimental: Mice were euthanized by isoflurane inhalation and the left common iliac artery was transected to allow for drainage. PBS (pH 7.4) and PBS containing 4% paraformaldehyde (PFA) was flushed through the left ventricle. The heart and thoracic aorta were removed en bloc and fixed in 4% PFA overnight at 4° C. Aortas were submitted for paraffin fixation and longitudinal sections 5 micrometers thick were mounted on glass slides and stained with hematoxylin & eosin (HE), Verhoeff-van Giesen (VVG), Masson's Trichrome, or Picrosirius red (PSR). Slides were imaged at 20× and 40× magnification using a Nikon Eclipse E400 microscope. Collagen content was determined by polarized PSR intensity (31) and elastin breaks were counted by a researcher blinded to genotype and treatment arm using only VVG stained sections where elastin breaks were clearly visualized.
For immunofluorescence, slides were incubated in antigen retrieval solution for 1 minute in a pressure cooker. Sections were incubated with 1% BSA for one hour at room temperature. Primary antibodies were diluted at 1:200 in 1% BSA and incubated overnight at 4° C. Three consecutive washes were performed prior to incubation with anti-rabbit secondary antibodies conjugated to Alexa Fluor 488 (Invitrogen A-11039) or anti-mouse secondary antibodies conjugated to Alexa Fluor 594 (Invitrogen R37119) at 1:200 for 1 hour at room temperature. […]

SMILES	p-PKC level in aorta (in words) (p-PKC)	p-ERK1/2 level in aorta (in words) (p-ERK1/2)	effect on survival (in words) (Col3a1^G938D mice; Col3a1^G938D/+ mice vs untreated, Log-Rank (Mantel-Cox))	mice surviving to the end of the trial (Col3a1^G938D mice; vEDS (Col3a1^G938D) mice, drug from weaning (P21), followed 45 days, in food, estimated 100 mg/kg/day, untreated 46%)	ET1 protein levels in aorta (in words) (Endothelin-1)
COc1ccccc1Oc1c(NS(=O)(=O)c2ccc(C(C)(C)C)cc2)nc(-c2ncccn2)nc1OCCO [bosentan, Bosentan]	marked downregulation	not p-ERK1/2	moderately but significantly improved survival	70%	
O=C(c1ccc(F)c(F)c1Nc1ccc(I)cc1F)N1CC(O)([C@@H]2CCCCN2)C1 [cobimetinib, Cobimetinib]					attenuated
CN(C)C[C@@H]1CCn2cc(c3ccccc32)C2=C(C(=O)NC2=O)c2cn(c3ccccc23)CCO1 [ruboxistaurin, Ruboxistaurin]					attenuated
